According to US10201587B2, “Methods of inhibiting and treating biofilms using glycopeptide antibiotics” (MELINTA THERAPEUTICS, INC., priority 2008, dated 2019):
≈ marks a conversion by molar mass, not a printed value. Read-outs that look alike come from different tables or passages of the source.

Experiments:
S. aureus ATCC 29213 [1] = experiment: Membrane depolarization, DiSC3(5) fluorescence; format: cell-based; details: 30 min
Experimental: Bacteria were grown overnight in CAMHB and sub-cultured the following day in CAMHB to exponential phase (OD600≈0.25). Exponential- and stationary-phase cells were washed in membrane assay buffer with or without 5 mM glucose, respectively, and resuspended at an OD600=0.25. DiSC3(5) was added to a final concentration of 1.5 μM and the solution was incubated in the dark at ambient temperature for 30 minutes to allow loading of the fluorescent dye into cell membranes. After the loading period, cells were diluted 50-fold (OD600=0.005) in depolarization buffer with or without glucose for exponential- or stationary-phase cells, respectively. Assays were initiated by the addition of antimicrobial agents over a range of concentrations and were monitored in real time by fluorescence spectroscopy (λex=612, λem=665) for a period of 30 minutes. […] Experiments were repeated three times and produced similar results; results from one assay are presented.

S. aureus ATCC 29213 [2] = experiment: Membrane permeability, SYTO-9/propidium iodide fluorescence; format: cell-based; details: 30 min
Experimental: For membrane permeability assays, bacteria were prepared identically as described above for the membrane depolarization assay with the exception that SYTO-9 and propidium iodide (Invitrogen Corporation) were added at 5 μM and 30 μM, respectively. Experiments were repeated three times and produced similar results; results from one assay are presented.

S. aureus ATCC 29213 [3] = experiment: Short duration (2 h) time-kill in membrane assay buffer; format: cell-based; details: for killing over short time course: fCmax
Experimental: Short duration (2 h) time-kill studies were performed in membrane assay buffer (see below) to characterize the killing of S. aureus ATCC 29213 under conditions used in the membrane depolarization and permeability assays. Exponential- and stationary-phase S. aureus ATCC 29213 cells were diluted to an OD600=0.005 (approx 10^6 CFU/mL) in membrane assay buffer (10 mM HEPES-C1, pH 7.5, 50 μg/mL CaCl2) with or without 5 mM glucose, respectively. Experiments were initiated by the addition of antimicrobial agents at the indicated concentrations and bacteria were enumerated by serial-dilution plating.

[4] = cited from earlier work; for estimated fCmax in plasma: human, in vivo, 200 mg
MRSA ATCC 33591 [5] = experiment: Time-kill in nutrient-depleted CAMHB; format: cell-based, S. aureus; details: stationary-phase, 24-hour incubation, fCmax
Experimental: (§1) Nutrient-depleted CAMHB from each respective strain was prepared by 3 rounds of inoculation of CAMHB with exponential-phase bacteria, incubation overnight at 37° C. with rotation (225 rpm) and centrifugation (8000×g for 30 minutes) to remove bacteria. After the final round of inoculation, growth and centrifugation, the pH of the nutrient-depleted CAMHB was adjusted to pH=7.0 and the spent medium was filter-sterilized using a […] membrane (Corning Incorporated, Corning, N.Y.).
(§2) Nutrient-depleted CAMHB containing diluted antimicrobial agents was inoculated with stationary-phase bacteria from overnight cultures of the S. aureus strains at approximately 10^7 colony-forming units (CFU)/mL. Other experiments compared the killing of stationary- and exponential-phase S. aureus ATCC 29213 when inoculated into nutrient-depleted CAMHB containing the test agents. For assays involving daptomycin, nutrient-depleted CAMHB was supplemented with 50 μg/ml CaCl2 (8). All time-kill studies were performed in 96-well deep-well plates at 37° C. with rotation (225 rpm) in a total volume of 750 μL. Bacteria were enumerated by serial-dilution plating. Bacteriostatic and bactericidal activity of the antimicrobial agents were defined as a reduction in viable cell counts of <3 or ≥3 log at 24 hours relative to the starting inoculum, respectively (33). Experiments were repeated at least three times and produced similar results; results from one experiment are presented.

VRSA VRS5 [6] = experiment: Time-kill in nutrient-depleted CAMHB; format: cell-based, S. aureus; details: stationary-phase, 24-hour incubation, fCmax
Experimental: as §1, §2

MRSA ATCC 33591 [7] = experiment: MBEC system in vitro biofilm (MIC and MBEC); format: cell-based, S. aureus; details: for MBEC: 24-hour biofilm, 24 hours of exposure; for MIC: Staphylococcus aureus
Experimental: (§3) The commercially-available MBEC™ system (Innovotech; Edmonton, AB, Canada) was used following the manufacturer's protocol (17) to establish in vitro biofilms of S. aureus and to determine the minimal biofilm eradication concentration (MBEC) of oritavancin and comparator antimicrobial agents. The MBEC represents the concentration of antimicrobial agent required to sterilize the biofilm after 24 hours of exposure. The MBEC™ system also allows for the determination of the minimal inhibitory concentration (MIC) of the test agent against planktonic cells under the conditions of the biofilm assay.
(§4) 150 μL of bacterial inocula at 10^7 CFU/mL in tryptic soy broth was aliquoted into each well of an MBEC plate. Biofilms were established for 24 hours in a rotary incubator at 37° C. and 150 rpm. For experiments involving 72-hour biofilms, peg lids were transferred each day to 96-well plates containing 150 μL/well of fresh tryptic soy broth and incubated another 24 hours. Peg lids with established biofilms were washed once in sterile saline (200 μL/well) and then placed in plates containing antimicrobial agents diluted in CAMHB (200 μL/well). Antimicrobial agents were serially diluted in CAMHB in 96-well plates and peg lids were exposed for 24 hours or for the indicated times. Following antimicrobial challenge, peg lids were washed once in sterile saline then placed in recovery plates containing CAMHB (200 μL/well). The recovery plates were sonicated for 5 minutes in an ultrasonic sonicating bath (VWR Aquasonic model 550D) at the maximum setting then incubated for 24 hours and the MBECs recorded. MBECs were determined from at least three independent experiments; results represent the ranges of MBECs obtained. To enumerate the biofilm colony forming units (CFUs) on individual control pegs, pegs were broken off the lid using sterile forceps placed in 1 ml sterile saline, sonicated for 5 min and vortexed for 1 min at the highest setting. Bacteria were then enumerated by serial-dilution plating.
(§5) To prevent loss of oritavancin due to binding to vessel surfaces (3), the CLSI now recommends inclusion of 0.002% polysorbate-80 for oritavancin broth microdilution MIC determinations (9).

MSSA ATCC 29213 [8] = experiment: MBEC system in vitro biofilm (MIC and MBEC); format: cell-based, S. aureus; details: for MBEC: 24-hour biofilm, 24 hours of exposure; for MIC: Staphylococcus aureus
Experimental: as §3, §4, §5

VRSA VRS5 [9] = experiment: MBEC system in vitro biofilm (MIC and MBEC); format: cell-based, S. aureus; details: for MBEC: 24-hour biofilm, 24 hours of exposure; for MIC: Staphylococcus aureus, VRSA
Experimental: as §3, §4, §5

[10] = tested on: S. epidermidis ATCC 35984; experiment: MBEC plate biofilm eradication, agents in combination; format: cell-based
Source text: The following strains were used for in vitro biofilm studies: vancomycin (VAN)-susceptible Enterococcus faecalis ATCC 29212 (VSE), VAN-resistant E. faecalis ATCC 51299 (VanB VRE), E. faecium ATCC 51559 (VanA VRE), S. epidermidis ATCC 12228 and the slime-producing strain S. epidermidis ATCC 35984. Biofilms were established in MBEC™ Physiology & Genetics Assay plates (Innovotech; Edmonton, Canada).

MSSA ATCC 29213 [11] = experiment: Time-kill in nutrient-depleted CAMHB; format: cell-based, S. aureus; details: 24 hour time point, estimated fCmax
Experimental: as §1, §2

[12] = tested on: stationary-phase MRSA ATCC 43300; experiment: Ultrastructure by transmission electron microscopy of thin sections; format: cell-based, S. aureus; details: 3 hours in nutrient-depleted CAMHB; 1 μg/mL oritavancin, 16 μg/mL vancomycin
Experimental: Bacteria were fixed in 2.5% glutaraldehyde to cross-link proteins and help preserve morphological structure. Prior to embedding, the samples were treated with fresh 2.5% (vol/vol) glutaraldehyde in HEPES buffer (pH, 6.8) for 2 hours. The samples were then post-fixed in 2.0% (wt/vol) osmium tetroxide, followed by en bloc-staining with 2.0% (wt/vol) uranyl acetate, as a heavy-metal stain, to add contrast to the cells. The cells were then dehydrated through a series of ethanol washes then embedded in LR White resin. Once polymerized by curing, each culture sample was thin sectioned and stained by uranyl acetate and lead citrate so as to view the internal cellular constituents and the juxtaposition of cell envelope layers such as the plasma membrane and cell wall. Transmission electron microscopy was used to view the thin sections using a Philips CM10 under standard operating conditions at 100 kV.

[13] = tested on: exponentially-growing S. aureus (MSSA, MRSA, VRSA); details: actively dividing cells; cited from earlier work
[14] = oritavancin without polysorbate-80
[15] = planktonic cells shed from 24-hour peg biofilms, oritavancin without polysorbate-80, read-out: MIC

SMILES: CCCCCCCCCC(=O)N[C@@H](Cc1c[nH]c2ccccc12)C(=O)N[C@H](CC(N)=O)C(=O)N[C@@H](CC(=O)O)C(=O)N[C@@H]1C(=O)NCC(=O)N[C@@H](CCCN)C(=O)N[C@@H](CC(=O)O)C(=O)N[C@H](C)C(=O)N[C@@H](CC(=O)O)C(=O)NCC(=O)N[C@H](CO)C(=O)N[C@@H]([C@H](C)CC(=O)O)C(=O)N[C@@H](CC(=O)c2ccccc2N)C(=O)O[C@@H]1C [Daptomycin, daptomycin]
- dissipation of membrane potential (DiSC3(5) fluorescence) (S. aureus ATCC 29213 [1]; exponential-phase cells): small effect
- dissipation of membrane potential (DiSC3(5) fluorescence) (S. aureus ATCC 29213 [1]; stationary-phase cells): did not effect changes
- membrane permeability (SYTO-9 fluorescence) (S. aureus ATCC 29213 [2]; exponential-phase cells): loss of fluorescence
- membrane permeability (SYTO-9 fluorescence) (S. aureus ATCC 29213 [2]; stationary-phase cells): no effect
- killing over short time course (S. aureus ATCC 29213 [3]; exponential-phase cells): Rapid killing
- reduction in CFU (S. aureus ATCC 29213 [3]; stationary-phase cells, within the 2-hour time period, oritavancin at fCmax 800, daptomycin at fCmax): 0.7 log
- estimated fCmax in plasma [4]: 4 µg/mL

SMILES: CC(=O)NC[C@H]1CN(c2ccc(N3CCOCC3)c(F)c2)C(=O)O1 [Linezolid, linezolid]
- effect on bacterial cell numbers (MRSA ATCC 33591 [5]): no effect
- effect on bacterial cell numbers (VRSA VRS5 [6]): no effect
- MBEC (MRSA ATCC 33591 [7]; [14]): >128 µg/mL
- MIC (MRSA ATCC 33591 [7]; [15]): 2 to 4 µg/mL (≈ 5.93 to 11.9 µM)
- MBEC (MSSA ATCC 29213 [8]; [14]): >128 µg/mL
- MIC (MSSA ATCC 29213 [8]; 72-hour biofilms, read-out: planktonic MIC): 8 to 16 µg/mL (≈ 23.7 to 47.4 µM)
- MIC (MSSA ATCC 29213 [8]; [15]): 8 µg/mL (≈ 23.7 µM)
- MBEC (VRSA VRS5 [9]; [14]): >128 µg/mL
- MIC (VRSA VRS5 [9]; [15]): 4 to 8 µg/mL (≈ 11.9 to 23.7 µM)

SMILES: COc1c(N2C[C@@H]3CCCN[C@@H]3C2)c(F)cc2c(=O)c(C(=O)O)cn(C3CC3)c12 [MOX, moxifloxacin]
- MBEC in combination ([10]; combination of ORI and MOX required for sterilization): 4 mg/L

SMILES: CO[C@H]1/C=C/O[C@@]2(C)Oc3c(C)c(O)c4c(c3C2=O)C2=NC3(CCN(CC(C)C)CC3)NC2=C(NC(=O)/C(C)=C\C=C\[C@H](C)[C@H](O)[C@@H](C)[C@@H](O)[C@@H](C)[C@H](OC(C)=O)[C@@H]1C)C4=O [RFB, rifabutin]
- MBEC in combination ([10]; combination of ORI and RFB required for sterilization): 0.125 mg/L

SMILES: CO[C@H]1/C=C/O[C@@]2(C)Oc3c(C)c(O)c4c(O)c(c(/C=N/N5CCN(C)CC5)c(O)c4c3C2=O)NC(=O)/C(C)=C\C=C\[C@H](C)[C@H](O)[C@@H](C)[C@@H](O)[C@@H](C)[C@H](OC(C)=O)[C@@H]1C [Rifampicin, rifampicin]
- MBEC (MRSA ATCC 33591 [7]; [14]): 0.25 to 4 µg/mL
- MIC (MRSA ATCC 33591 [7]; [15]): < 0.03 µg/mL
- MBEC (MSSA ATCC 29213 [8]; [14]): 4 µg/mL
- MIC (MSSA ATCC 29213 [8]; [15]): < 0.02 µg/mL
- MBEC (VRSA VRS5 [9]; [14]): 4 µg/mL
- MIC (VRSA VRS5 [9]; [15]): 0.03 to 0.06 µg/mL (≈ 0.0365 to 0.0729 µM)
- estimated fCmax in plasma [4]: 2 µg/mL

SMILES: CN[C@H](CC(C)C)C(=O)N[C@H]1C(=O)N[C@@H](CC(N)=O)C(=O)N[C@H]2C(=O)N[C@H]3C(=O)N[C@H](C(=O)N[C@H](C(=O)O)c4cc(O)cc(O)c4-c4cc3ccc4O)[C@H](O)c3ccc(c(Cl)c3)Oc3cc2cc(c3O[C@@H]2O[C@H](CO)[C@@H](O)[C@H](O)[C@H]2O[C@H]2C[C@](C)(N)[C@H](O)[C@H](C)O2)Oc2ccc(cc2Cl)[C@H]1O [Vancomycin, vancomycin]
- less killing activity against stationary-phase cells compared to exponential-phase cells (MSSA ATCC 29213 [11]): approx 2.4 log
- dissipation of membrane potential (DiSC3(5) fluorescence) (S. aureus ATCC 29213 [1]; exponential-phase cells): no effect on membrane potential
- dissipation of membrane potential (DiSC3(5) fluorescence) (S. aureus ATCC 29213 [1]; stationary-phase cells): no effect on membrane potential
- membrane permeability (SYTO-9 fluorescence) (S. aureus ATCC 29213 [2]; exponential-phase cells): no effect on fluorescence
- membrane permeability (SYTO-9 fluorescence) (S. aureus ATCC 29213 [2]; stationary-phase cells): no effect on fluorescence
- killing over short time course (S. aureus ATCC 29213 [3]; exponential-phase cells): did not effect any change
- killing over short time course (S. aureus ATCC 29213 [3]; stationary-phase cells): did not effect any change
- septal mid-line staining [12]: evident
- MBEC (MRSA ATCC 33591 [7]; [14]): ≥128 µg/mL
- MIC (MRSA ATCC 33591 [7]; 24 h): 1 to 2 µg/mL (≈ 0.69 to 1.38 µM)
- MBEC (MSSA ATCC 29213 [8]; [14]): >128 µg/mL
- MIC (MSSA ATCC 29213 [8]; 24 h): 1 µg/mL (≈ 0.69 µM)
- MIC (MSSA ATCC 29213 [8]; 72 h, read-out: planktonic MIC): 2 to 16 µg/mL (≈ 1.38 to 11 µM)
- MBEC (VRSA VRS5 [9]; [14]): >128 µg/mL
- MIC (VRSA VRS5 [9]; 24 h): > 128 µg/mL
- time required to exert bactericidal activity [13]: 24 h
- estimated free trough concentration in plasma ([4]; humans, standard dose (oritavancin 200 mg)): 4 µg/mL
